Measurements: PubChem BioAssay AID652177 (Vanderbilt Specialized Chemistry Center, 2013)

Target: High affinity choline transporter 1 (Homo sapiens) (UniProt Q9GZV3)
Assay: CHT choline uptake inhibitors, dose response, cell-based, HEK-293 hCHT, [3H]-choline uptake (AID 652177)
Details: 15 min, IC50 at 10 uM choline

Chain of High affinity choline transporter 1 (Homo sapiens) (Q9GZV3 whole entry, looked up): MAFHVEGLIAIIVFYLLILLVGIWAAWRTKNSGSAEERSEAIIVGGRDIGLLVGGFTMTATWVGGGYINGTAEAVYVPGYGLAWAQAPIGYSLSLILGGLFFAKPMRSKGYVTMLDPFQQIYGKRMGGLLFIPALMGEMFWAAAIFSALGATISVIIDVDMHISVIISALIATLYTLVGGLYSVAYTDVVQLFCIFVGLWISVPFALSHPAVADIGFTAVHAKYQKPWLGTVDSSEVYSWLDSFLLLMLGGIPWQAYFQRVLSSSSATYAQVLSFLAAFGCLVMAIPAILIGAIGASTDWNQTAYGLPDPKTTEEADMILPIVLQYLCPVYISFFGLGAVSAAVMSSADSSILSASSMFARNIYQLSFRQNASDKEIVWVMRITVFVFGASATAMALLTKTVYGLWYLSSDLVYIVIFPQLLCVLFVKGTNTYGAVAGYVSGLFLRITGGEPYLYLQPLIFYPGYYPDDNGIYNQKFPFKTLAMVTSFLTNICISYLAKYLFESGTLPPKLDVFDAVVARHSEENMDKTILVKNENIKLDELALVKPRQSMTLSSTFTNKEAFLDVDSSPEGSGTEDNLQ

IC50: 2.21 µM
SMILES: CCc1cc(CNC(=O)c2ccc(OC)c(OCCN3CCCCC3)c2)on1
